Entries after “also recorded” stand apart in the source; their conditions may differ.
System: men with clinical BPH
Assay: four-year, double-blind placebo-controlled study of finasteride in men with clinical BPH (acute urinary retention and BPH-related surgery outcomes)
Type: in vivo, human
Settings: for risk of AUR or BPH-related surgery / finasteride-related reduction of risk (AUR or surgery): 4 years; for finasteride-related reduction of risk (AUR or surgery): versus placebo
Experimental: A total of 3040 men with clinical BPH diagnosed on the basis of moderate-to-severe symptoms, a decreased peak urinary flow rate (less than 15 mL/sec with a voided volume of 150 mL or more) and an enlarged prostate gland by digital rectal examination (DRE) were enrolled in a four-year study comparing finasteride with placebo. Men receiving alpha blocking agents or antiandrogens, and men with a history of chronic prostatitis, recurrent urinary tract infections, prostate or bladder cancer or surgery, or a serum PSA over 10 ng/mL were excluded. Men with serum PSA concentrations between 4.0 and 9.9 ng/mL had to have a negative prostate biopsy prior to enrollment.
After a one-month single-blind placebo lead-in, men were randomly assigned to receive placebo or 5 mg of finasteride (17β-(N-tert-butylcarbamoyl)-3-oxo-4-aza-5α-androst-1-en-3-one) daily in a four year, double-blind placebo-controlled study. BPH-related outcomes including symptoms, bothersomeness, adverse events and urinary flow rates, were assessed every 4 months. Serum PSA was measured every 4 months in the first year and then every 8 months at a central laboratory. Physical examination and routine hematological and serum chemistry tests were performed yearly. Magnetic resonance imaging (MRI) was performed at baseline and subsequently yearly in a subset of 10% of patients. All MRI images were read by a central radiologist blinded to treatment allocation and time of imaging.
Acute urinary retention (AUR) and surgery for BPH were predefined secondary end-points. The endpoint committee, blinded to treatment group, reviewed all study-related documents related to episodes of acute urinary retention, and all prostate surgeries for BPH, excluding surgery for prostate cancer. The endpoint committee classified episodes of AUR as spontaneous versus precipitated (when contributing factors such as urinary tract infection, surgery anesthesia, ingestion of alpha sympathomimetic drugs or anticholinergics were identified).
Complete data on outcomes, including four-year follow-up information for men who had discontinued treatment, were available for 92% of the men randomized. In the other 8%, complete information was available until discontinuation of the medication or up to the 6-month follow-up assessment after discontinuation.
The effect of baseline serum PSA on the risk of BPH-related outcomes (developing AUR and need for BPH-related surgery), were assessed by dividing patients into tertiles of baseline serum PSA, and calculating the risk of developing an outcome by time-to-first event analysis as well as Fisher's exact test for cumulative incidence. The finasteride-related reduction in risk over 4 years was calculated using log rank analyses. All statistical tests were two-sided and a p-value of <0.05 accepted as significant.
The measurement characteristics of baseline in prediction of BPH-related outcomes were evaluated using receiver operating characteristic (ROC) curves. The area under the ROC curve (AUC) for a given population is given by the probability that a randomly chosen individual in the affected population has a higher value of the index (in this case PSA) than a randomly chosen individual in the non-affected population. The AUC's were computed using the method of Hanley and McNeil. Differences between AUC's in the finasteride and placebo group were tested using normal statistics with standard deviations computed by the same method.

[1] = 5 mg daily, four years, all patients
[2] = lowest tertile of serum PSA (0.0-1.3 ng/mL)
[3] = second tertile (serum PSA 1.4-3.2 ng/mL)

Question: Which “incidence of BPH-related surgery” value [1] does the source give for `CC(C)(C)NC(=O)[C@H]1CC[C@H]2[C@@H]3CC[C@H]4NC(=O)C=C[C@]4(C)[C@H]3CC[C@]12C` [finasteride, 17β-(N-tert-butylcarbamoyl)-3-oxo-4-aza-5α-androst-1-en-3-one] here?
Answer: 5%

Question: What about the “incidence of precipitated AUR” value [1] of the same molecule?
Answer: 2%

Question: What about the “incidence of spontaneous AUR” value [1] of the same molecule?
Answer: 1%

Question: What about the “overall incidence of acute urinary retention” value (5 mg finasteride daily, four years, all patients) of the same molecule?
Answer: 4%

Question: What about the “decrease of the risk of developing a BPH-related outcome” value (all subgroups examined) of the same molecule?
Answer: approximately half

Question: And the “increase of cumulative incidence of spontaneous AUR with increasing baseline serum PSA” value (finasteride-treated patients, four years, FIG. 1)?
Answer: nearly absent; also recorded: the risk remains unchanged over the entire serum PSA spectrum

Question: What about the “increase of cumulative incidence of all AUR (spontaneous and precipitated combined) with increasing baseline serum PSA” value (finasteride-treated patients, four years, FIG. 2) of the same molecule?
Answer: nearly absent

Question: And the “increase of cumulative incidence of BPH-related surgery across baseline PSA values” (finasteride-treated patients, four years, FIG. 3)?
Answer: increases only in finasteride-treated patients in men with a baseline PSA above 5.0 ng/mL

Question: And the “risk of AUR or BPH-related surgery” value (highest tertile of baseline serum PSA)?
Answer: 8.3%

Question: And the “risk of AUR or BPH-related surgery” value (lowest tertile of baseline serum PSA)?
Answer: 4.4%

Question: And the “4-year relative risk for finasteride versus placebo-treated patients” value [2]?
Answer: 0.57

Question: What about the “benefit of finasteride over placebo in the first two years (risk of AUR or surgery)” value [2] of the same molecule?
Answer: minimal; also recorded: no apparent benefit

Question: What about the “finasteride-related reduction of risk (AUR or surgery)” value (“finasteride-related reduction of risk” below) [2] of the same molecule?
Answer: 43%

Question: And the “4-year relative risk for finasteride versus placebo-treated patients” value [3]?
Answer: 0.54

Question: And the “finasteride-related reduction of risk” value [3]?
Answer: 46%

Question: And the “4-year relative risk for finasteride versus placebo treated patients” value (third tertile of serum PSA (3.3-12 ng/mL))?
Answer: 0.40

Question: What about the “finasteride-related reduction of risk” value (third/highest tertile of serum PSA (3.3-12 ng/mL)) of the same molecule?
Answer: 60%
